Series [1] concerns T-cell dependent antibody response. The series can be described thus: T-cell dependent antibody response (TDAR) assay with KLH. Conditions: for anti-KLH IgG mean percent difference compared to vehicle controls / anti-KLH IgM mean percent difference compared to vehicle controls: 30 mg/kg/day.
Series [2] deals with mouse B cells. The series can be described thus: Mouse B cell proliferation assay. The format is cell-based. The note with it: Cellular. On the procedure: In the Mouse B cell assay, B cells are purified from mouse splenocytes and plated in the tissue culture plates with supplement of anti-IgM and m-IL4. […] After 3 days, cell viability was measured using Cell Titer Glo.
The test system of series [3] is TMD-8 cells (BTK). The series can be described thus: BTK-dependent TMD-8 cell proliferation assay. The format is cell-based. Conditions: Homo sapiens, TMD8, Cellular. As for the experimental part: After 3 days, cell viability was measured using Cell Titer Glo.
For series [4], the system named is mouse CD4+ T cells. The series can be described thus: Mouse CD4 T cell proliferation assay. The format is cell-based. Conditions: Cellular.
Series [5] deals with primary human CD4+ T cells. The series can be described thus: Human CD4 T cell proliferation assay. The format is cell-based. The note with it: Cellular. On the procedure: In the Human CD4 T cell assay, primary human CD4+ T cells isolated from a leukopak were cultured in the presence of anti-CD3/anti-CD28 beads to stimulate T cell proliferation. After 4 days, cell viability was measured using Cell Titer Glo.

For series [6], the system named is TEC-family kinases (ITK, TEC, and TXK). The series can be described thus: Cellular IL-2 production assay in Jurkat cells. Conditions: Homo sapiens, CD3/CD28 stimulation, read-out: IC50, IL2-Production. The format is cell-based. As for the experimental part: The cellular IL-2 Production assay was carried out using Jurkat cells. Upon CD3/CD28 stimulation overnight in the presence of various concentrations of compound, the IL-2 content in the conditioned media was measured by ELISA, and compound IC50 was determined.

In series [7] the target is T1, TXK (Homo sapiens, UniProt P42681).
T1 sequence (P42681 1-527): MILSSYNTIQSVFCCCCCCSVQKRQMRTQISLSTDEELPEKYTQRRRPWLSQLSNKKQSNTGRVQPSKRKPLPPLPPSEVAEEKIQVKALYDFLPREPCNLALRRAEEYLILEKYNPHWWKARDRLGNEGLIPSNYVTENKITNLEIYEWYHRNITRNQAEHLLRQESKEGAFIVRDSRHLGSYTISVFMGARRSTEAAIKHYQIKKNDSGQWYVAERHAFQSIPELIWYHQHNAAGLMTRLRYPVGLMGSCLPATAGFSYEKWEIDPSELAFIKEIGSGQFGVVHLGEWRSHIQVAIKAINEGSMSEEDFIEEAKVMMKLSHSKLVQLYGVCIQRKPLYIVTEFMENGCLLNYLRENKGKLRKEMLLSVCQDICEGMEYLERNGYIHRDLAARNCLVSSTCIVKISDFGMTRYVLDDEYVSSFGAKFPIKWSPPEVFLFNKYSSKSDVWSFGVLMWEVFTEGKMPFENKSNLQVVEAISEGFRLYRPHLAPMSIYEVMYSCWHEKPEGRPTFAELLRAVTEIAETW
The series can be described thus: TXK biochemical assay (Caliper LabChip).

The target in series [8] is T2, TEC (Homo sapiens, UniProt P42680).
T2 sequence (P42680 1-631): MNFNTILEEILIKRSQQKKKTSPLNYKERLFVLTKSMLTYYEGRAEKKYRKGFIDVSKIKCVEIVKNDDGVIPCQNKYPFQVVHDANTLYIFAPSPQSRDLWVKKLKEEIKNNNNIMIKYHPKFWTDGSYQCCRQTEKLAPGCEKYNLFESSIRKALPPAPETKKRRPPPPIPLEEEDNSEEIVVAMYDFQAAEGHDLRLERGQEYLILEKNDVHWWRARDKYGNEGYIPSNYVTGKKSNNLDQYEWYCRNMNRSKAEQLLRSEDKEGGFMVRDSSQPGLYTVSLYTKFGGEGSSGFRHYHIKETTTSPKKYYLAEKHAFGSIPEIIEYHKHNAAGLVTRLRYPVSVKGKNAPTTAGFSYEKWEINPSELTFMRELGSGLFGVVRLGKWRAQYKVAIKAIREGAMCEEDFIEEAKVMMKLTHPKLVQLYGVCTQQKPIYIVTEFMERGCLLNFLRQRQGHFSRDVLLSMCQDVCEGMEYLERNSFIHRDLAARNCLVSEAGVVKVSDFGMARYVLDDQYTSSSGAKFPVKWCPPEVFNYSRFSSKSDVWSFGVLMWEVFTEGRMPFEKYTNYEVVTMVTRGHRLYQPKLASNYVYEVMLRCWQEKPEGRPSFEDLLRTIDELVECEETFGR
The series can be described thus: TEC biochemical assay (Caliper LabChip).

Series [9] addresses human PD-1 protein (Homo sapiens, UniProt Q15116). The series can be described thus: Biacore binding on human PD-1 protein. The note with it: Biacore method. As for the experimental part: The binding of an exemplary humanized anti-PD-1 antibodies including Clone B and Clone E as shown in Table 1 on human PD-1 protein was measured using Biacore method.
(In general: In SPR one partner is held on a chip, and binding of the other changes the refractive index at the surface.)

Series [10] can be described thus: Pharmacokinetic (PK) modeling of flat dosing schedules.
Series [11] can be described thus: Iso-electric focussing (Novex IEF) analysis. The format is physicochemical. Conditions: estimated from staining positions against the IEF 3-10 marker. As for the experimental part: Non-reduced samples of Protein A purified antibody were electrophoresed as described below.
5 μg of Protein A purified samples were electrophoresed on a 1.0 mm Novex pH 3-10 gradient gel (Invitrogen, EC66552BOX) using manufacturers recommended running conditions. A 10 μl aliquot of IEF pH 3-10 markers (Invitrogen, 39212-01) was included on the gel. Once electrophoresed, gels were fixed with 10% TCA solution for 30 min and then stained with InstantBlue (TripleRed, ISB01L) over night at room temperature. Images of the stained gels were analysed on a BioSpectrum Imaging System (UVP).

Series [12] concerns the target T3, human PD-1 expressed on 300.19 cells (human, UniProt Q15116 25-288).
T3 construct: whole, on cells; also called human PD-1-expressing 300.19 cells
The series can be described thus: blocking of PD-L1 binding on human PD-1-expressing 300.19 cells; competitor PD-L1.

The target of series [13] is T4, human PD-1 protein (human, UniProt Q15116 25-167, limits assumed).
T4 construct: Soluble protein in the Biacore assay
The series can be described thus: Biacore, human PD-1 protein.

The target in series [14] is cynomolgus PD-1 protein (cynomolgus, UniProt B0LAJ3 25-170). The series can be described thus: Biacore, cynomolgus PD-1.
Sequence of cynomolgus PD-1 protein (B0LAJ3 entry or part of it limits assumed): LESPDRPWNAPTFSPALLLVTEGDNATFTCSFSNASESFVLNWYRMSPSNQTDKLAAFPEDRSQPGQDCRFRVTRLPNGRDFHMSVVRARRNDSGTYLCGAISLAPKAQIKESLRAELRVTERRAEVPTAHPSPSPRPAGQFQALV

Sequence of human PD-1 protein (Homo sapiens, UniProt Q15116) (Q15116 25-288): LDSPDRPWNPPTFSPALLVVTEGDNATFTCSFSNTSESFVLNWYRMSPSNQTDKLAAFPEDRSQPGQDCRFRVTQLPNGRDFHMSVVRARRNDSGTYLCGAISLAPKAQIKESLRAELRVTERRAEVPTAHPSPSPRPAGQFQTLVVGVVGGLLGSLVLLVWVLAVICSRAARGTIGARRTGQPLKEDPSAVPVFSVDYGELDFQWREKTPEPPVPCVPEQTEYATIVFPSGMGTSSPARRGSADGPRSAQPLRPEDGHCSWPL
T3 sequence (Q15116 25-288): as above
T4 sequence (Q15116 25-167 limits assumed): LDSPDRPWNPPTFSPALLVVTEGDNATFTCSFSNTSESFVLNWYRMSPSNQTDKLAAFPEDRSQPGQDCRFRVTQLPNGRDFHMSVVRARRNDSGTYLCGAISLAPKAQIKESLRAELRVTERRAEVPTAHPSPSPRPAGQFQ

The term IC50 denotes the concentration at which inhibition is half-maximal. As to `Cc1cc(C(=O)Nc2nc3cccc(Cl)c3n2[C@@H]2CCCCN(C(=O)/C=C/CN(C)C)C2)ccn1` [Compound A, (R,E)-N-(7-chloro-1-(1-(4-(dimethylamino)but-2-enoyl)azepan-3-yl)-1Hbenzo[d]imidazol-2-yl)-2-methylisonicotinamide], the “anti-KLH IgG mean percent difference compared to vehicle controls” value in series [1] (female rats, study day 19) is recorded as −96%; in [1] (female rats, study day 21), −98%; in series [1] (female rats, study day 23) it was −97%; in series [1] (female rats, study day 25), −96%; in series [1] (female rats, study day 36), −69%; in [1] (male rats, study day 19) it was −78%. In addition, the “anti-KLH IgG mean percent difference compared to vehicle controls” value in series [1] (male rats, study day 21) was −84%; in [1] (male rats, study day 23), −80%; in series [1] (male rats, study day 25) it was −83%. The “anti-KLH IgM mean percent difference compared to vehicle controls” value in series [1] (female rats, study day 19) is on record as −88%; in [1] (female rats, study day 21), −75%; in [1] (female rats, study day 23) it was −71%; in series [1] (female rats, study day 25) it was −63%; in [1] (female rats, study day 36), −67%; in [1] (male rats, study day 19) it was −67%. Further, the “decrease of anti-KLH antibody production after withdrawal of treatment” value in [1] (male and female rats, recovery day 42 and 53) was “reversible”. The half-maximal inhibitory concentration (IC50) in series [2] came out at 295 nM; in series [3], 224 nM; in [4], 107 nM; in series [5] it was 140 nM; in series [6] it was 21 nM; in series [7], 2 nM. For the same molecule, it took 0.9 nM to reach half-maximal inhibition in [8] (IC50). Besides, the “IC50, TXK” value in series [7] (Biochemical) was “single digit nM”. In addition, the “IC50, TEC” value in [8] (Biochemical) is given as “single digit nM”.

In turn, “BAP049-Clone E: humanized anti-programmed death-1 (PD-1) IgG4 monoclonal antibody; sequences in Table 1” came in with a Ka in series [9] of 278000 M⁻¹ s⁻¹. The same molecule came in with a Kd in series [9] (rate constant) of 0.000213 s⁻¹. In series [10] (46 patients in PK dataset), the Half-Life is 20 [17, 23] days; the “IIV of CL” value was 62%; the “IIV of Half-Life” value stood at 64%; the “IIV of Volume of distribution at SS” value came to 22%. In series [10] (46 patients in PK dataset), the “Volume of distribution at SS” value was 7.2 [6.5, 7.9] L. In series [10] (flat dose), the “patients with Cmin above EC50” value is reported as “Over 99.5%” and the “patients with Cmin above EC90” value is recorded as “over 93%”. For the same molecule, the CL in [10] (flat dosing schedules, 46 patients in PK dataset) was 10.9 [8.9, 13.2] mL/h. For the same molecule, in [11], the “Basic charge isoforms (pI)” value was 7.55 and the “pI of predominant charge isoform” value is given as 7.5.

B1: BAP049-Clone-E (antibody, human IgG4 S228P, kappa, V domains shown)
VH: EVQLVQSGAEVKKPGESLRISCKGSGYTFTTYWMHWVRQATGQGLEWMGNIYPGTGGSNFDEKFKNRVTITADKSTSTAYMELSSLRSEDTAVYYCTRWTTGTGAYWGQGTTVTVSS
VL: EIVLTQSPATLSLSPGERATLSCKSSQSLLDSGNQKNFLTWYQQKPGQAPRLLIYWASTRESGVPSRFSGSGSGTDFTFTISSLEAEDAATYYCQNDYSYPYTFGQGTKVEIKR
notes: Humanized IgG4(S228P)/kappa; also called Antibody B; exemplary humanized anti-PD-1 antibody
As for B1, in series [12], the IC50 came out at 0.94 nM. For the same molecule, the Kd is 0.0827 nM in series [13] and 0.093 nM in [14].

The record behind these values is patent US20180177872A1, “Combination of PD-1 antagonist with an EGFR inhibitor” (priority 2015, published 2018).
